Our source for the LC retention time values is the RepoRT retention time repository.

This data set is described as follows: Waters ACQUITY UPLC BEH C18, 100 × 2.1 mm, 1.7 µm, 40 °C, 0.3 to 0.4 mL/min, estimated dead time 0.63 min; A: water + 0.1% formic acid; B: methanol + 0.1% formic acid; gradient (min/%B) 0/0.5 0.1/0.5 10/80 10.1/99.5 12/99.5. Particulars: stereoisomer not certain.
On to `CC(=O)OC1CC(COC2OC(CO)C(O)C(O)C2OC2OC(CO)C(O)C(O)C2O)CNC12OC1CC3C4CCC5CC(OC6OC(CO)C(OC7OC(CO)C(OC8OCC(O)C(O)C8O)C(O)C7OC7OC(CO)C(O)C(O)C7O)C(O)C6O)CCC5(C)C4CCC3(C)C1C2C` (stereo unspecified), for which the LC retention time was 3.84 min.
As for `COc1ccc(-c2coc3cc(OC4OC(COC(=O)CC(=O)O)C(O)C(O)C4O)ccc3c2=O)cc1` (stereo unspecified), the LC retention time was 5.43 min.
As to `Oc1cc(O)c2cc(OC3OCC(O)C(O)C3O)c(-c3ccc(O)c(O)c3)[o+]c2c1` (stereo unspecified), the LC retention time is 3.01 min.
On to `COc1c(O)cc2oc(-c3ccc(O)c(O)c3)c(OC3OC(COC4OC(CO)C(O)C(O)C4O)C(O)C(O)C3O)c(=O)c2c1O` (stereo unspecified), for which the LC retention time was 3.63 min.
With `O=C(C=Cc1ccc(O)c(O)c1)OC1CC2(O)CC(OC2=O)C1OC(=O)C=Cc1ccc(O)c(O)c1` (stereo unspecified), the LC retention time was 4.54 min.
Take `O=c1cc(-c2ccc(O)c(O)c2)oc2c(C3OC(CO)C(O)C(O)C3O)c(O)c(C3OCC(O)C(O)C3O)c(O)c12` (stereo unspecified): the LC retention time is 3.19 min.
Regarding `CC1OC(OC2C(OC3C(OC4CCC5(C)C(CCC6(C)C5CC=C5C7CC(C)(C)CC(O)C7(C)CCC56C)C4(C)CO)OC(C(=O)O)C(O)C3O)OC(C(=O)O)C(O)C2O)C(O)C(O)C1O` (stereo unspecified), the LC retention time is 7.06 min.
As for `CC1OC(OC2C(O)C(CO)OC(Oc3c(-c4ccc(O)cc4)oc4cc(O)cc(O)c4c3=O)C2O)C(O)C(O)C1O` (stereo unspecified), the LC retention time was 4.15 min.
For `COc1cc(C=CC(=O)N2CCC=CC2=O)cc(OC)c1OC`, the LC retention time was 6.83 min.
In the case of `CC(=O)N1CCCC1C(=O)O` (stereo unspecified), the LC retention time is 2.46 min.
With `COc1cc(C=CC(=O)OC2C(OC3C(Oc4ccc(-c5cc(=O)c6c(O)cc(O)cc6o5)cc4)OC(C(=O)O)C(O)C3O)OC(C(=O)O)C(O)C2O)ccc1O` (stereo unspecified), the LC retention time was 4.76 min.
On to `OCC(Cc1cccc(O)c1)C(CO)Cc1cccc(O)c1` (stereo unspecified), for which the LC retention time is 5.26 min.
For `CCCCCC=CCC=CCC=CCCCCC(=O)OCC(O)COP(=O)([O-])OCC[N+](C)(C)C` (stereo unspecified), the LC retention time is 8.85 min.
On to `CCCCCC=CC=CC(O)CCCCCCCC(=O)O` (stereo unspecified), for which the LC retention time is 9.79 min.
For `O=C1C(=Cc2ccc(O)c(O)c2)Oc2c1ccc(OC1OC(CO)C(O)C(O)C1O)c2O` (stereo unspecified), the LC retention time was 4 min.
`CC1OC(OCC2OC(Oc3c(-c4ccc(O)cc4)oc4cc(O)cc(O)c4c3=O)C(O)C(O)C2O)C(O)C(O)C1O` (stereo unspecified): the LC retention time was 4 min.
Regarding `O=c1cc(-c2ccc(O)cc2)oc2cc(OC3OC(CO)C(O)C(O)C3O)c(C3OC(CO)C(O)C(O)C3O)c(O)c12` (stereo unspecified), the LC retention time was 3.52 min.
Take `CCCCCCCCCCCCOS(=O)(=O)O`: the LC retention time is 8.65 min.
For `CC(C)=CCc1c(O)ccc(-c2coc3cc(O)cc(O)c3c2=O)c1O` the value was 7.57 min; for `COc1cc(CC2COC(=O)C2Cc2ccc(O)c(OC)c2)ccc1O` (stereo unspecified), 5.96 min.
In the case of `CS(=O)CCCCCCC#N` (stereo unspecified), the LC retention time is 3.43 min.
Regarding `O=C(O)c1cc2c(c3c1c([N+](=O)[O-])cc1ccc(O)cc13)OCO2`, the LC retention time is 5.96 min.
As to `CC(C)=CCc1c(O)c(-c2cc(-c3cc(=O)c4c(O)cc(O)cc4o3)ccc2O)c2oc(-c3ccc(O)cc3)cc(=O)c2c1O`, the LC retention time was 7.57 min.
With `CC(C)=CCCC(C)(O)C1CCC2(C)C1C(O)CC1C3(C)CCC(O)C(C)(C)C3C(OC3OC(CO)C(O)C(O)C3OC3OC(C)C(O)C(O)C3O)CC12C` (stereo unspecified), the LC retention time is 6.25 min.
Regarding `O=c1cc(-c2ccc(O)cc2)oc2cc(OC3OC(CO)C(O)C(O)C3O)c(O)c(O)c12` (stereo unspecified), the LC retention time is 4.13 min.
With `O=S(=O)(O)ON=C(Cc1ccc(O)cc1)SC1OC(CO)C(O)C(O)C1O` (stereo unspecified), the LC retention time was 2 min.
With `COc1cc(-c2oc3cc(O)cc(O)c3c(=O)c2OC2OC(CO)C(O)C(O)C2O)cc(OC)c1O` (stereo unspecified), the LC retention time was 4.36 min.
For `CC1=C(O)C(=O)CC(OC2CC(C)(C)CC3C4=CCC5C6(C)CCC(OC7OC(C(=O)O)C(O)C(O)C7OC7OC(C(=O)O)C(O)C(O)C7O)C(C)(CO)C6CCC5(C)C4(C)CCC23C)O1` (stereo unspecified), the LC retention time was 7.96 min.
Turning to `CC(C)(CO)C(O)C(=O)NCCC(=O)O` (stereo unspecified), the LC retention time is 2.48 min.
For `CCSSCC(NCC1(O)OCC(O)C(O)C1O)C(=O)NCCC(=O)O` (stereo unspecified) the value was 3.29 min; for `CC(C)C(O)(CC(=O)O)C(=O)O` (stereo unspecified), 3.25 min.
On to `Cc1[nH]ccc2c1[nH]c1cc(=O)ccc12`, for which the LC retention time is 3.18 min.
Turning to `O=CC=Cc1ccc(O)cc1`, the LC retention time was 4.53 min.
`O=C1CC(c2ccc(O)c(O)c2)Oc2c1c(OC1OC(CO)C(O)C(O)C1O)cc(O)c2C1OCC(O)C(O)C1O` (stereo unspecified): the LC retention time was 3.22 min.
Turning to `OCCc1c[nH]c2ccccc12`, the LC retention time is 3.06 min.
The value for `COc1ccc(CC2c3cc(OC)c(OC)cc3CCN2C)cc1OC` (stereo unspecified) was 4.26 min; that for `CSCCCCCCCN=C=S` was 9.19 min; that for `COc1cc(CC(COC2OC(CO)C(O)C(O)C2O)C(COC2OC(CO)C(O)C(O)C2O)Cc2ccc(O)c(OC)c2)ccc1O` (stereo unspecified) was 3.67 min.
Regarding `COc1ccc2c(c1)OC(OC1OC(CO)C(O)C(O)C1O)C(=O)N2OC` (stereo unspecified), the LC retention time is 4.1 min.
In the case of `CC1CCC2(OC1O)OC1CC3C4CC=C5CC(OC6OC(CO)C(OC7OC(C)C(O)C(O)C7O)C(O)C6OC6OC(C)C(O)C(O)C6O)CCC5(C)C4CC(O)C3(C)C1C2C` (stereo unspecified), the LC retention time was 5.61 min.
Take `CCC1CN2CCC3(O)C(=Nc4cccc(OC)c43)C2CC1C(=COC)C(=O)OC` (stereo unspecified): the LC retention time was 4.26 min.
Consider `CCN(CC)CCOC(=O)c1ccc(N)cc1`, for which the LC retention time was 2.75 min.
Turning to `COc1cc(C=CC=O)ccc1O`, the LC retention time was 4.76 min.
For `CC(C)CC(NC(=O)C(N)CO)C(=O)O` (stereo unspecified) the value was 2.38 min; for `COc1ccc(-c2coc3cc(O)c(CC=C(C)C)c(O)c3c2=O)cc1`, 8.02 min.
For `O=c1c(O)c(-c2ccc(O)cc2)oc2cc(O)cc(O)c12` the value was 6.01 min.
For `O=C(O)C1OC(OC2C(Oc3cc(O)c4c(=O)cc(-c5ccc(O)c(O)c5)oc4c3)OC(C(=O)O)C(O)C2O)C(O)C(O)C1O` (stereo unspecified) the value was 4 min.
Turning to `CC(C)C(N)C(=O)NC(C(=O)O)C(C)C` (stereo unspecified), the LC retention time was 2.15 min.
For the compound `NC(C(=O)O)c1ccccc1` (stereo unspecified), the LC retention time is 2 min.
Regarding `CC(C)CC(N)C(=O)NC(CC(C)C)C(=O)O` (stereo unspecified), the LC retention time is 3.29 min.
Turning to `COc1c(CC=C(C)C)c(O)cc2oc(=O)c(-c3ccc(O)cc3O)cc12`, the LC retention time was 7.01 min.
Consider `CC1OC(Oc2cc(O)c3c(=O)c(OC4OC(CO)C(O)C(O)C4OC4OC(CO)C(O)C(O)C4O)c(-c4ccc(O)c(O)c4)oc3c2)C(O)C(O)C1O` (stereo unspecified), for which the LC retention time is 2.95 min.
For `O=c1c(OC2OC(CO)C(O)C(O)C2OC2OC(CO)C(O)C(O)C2O)c(-c2ccc(O)cc2)oc2cc(O)cc(O)c12` (stereo unspecified) the value was 3.8 min; for `CC1OC(OC2C(OC3C(OC4CCC5(C)C(CCC6(C)C5CC=C5C7CC(C)(C)CC(=O)C7(C)CCC56C)C4(C)CO)OC(C(=O)O)C(O)C3O)OC(CO)C(O)C2O)C(O)C(O)C1O` (stereo unspecified), 7.62 min; for `C=C1CC23CC4C5C6(C)CC(OC(C)=O)CC57C2C(O)C1C(O)C3(O)C7N4C6` (stereo unspecified), 3.03 min.
Consider `CC1OC(OCC2OC(Oc3cc4c(O)cc(O)cc4[o+]c3-c3ccc(O)c(O)c3)C(OC3OC(CO)C(O)C(O)C3O)C(O)C2O)C(O)C(O)C1O` (stereo unspecified), for which the LC retention time was 2.75 min.
The value for `CC1(C(=O)O)CCC2(C)CCC3(C)C(=CC(=O)C4C5(C)CCC(OC6OC(C(=O)O)C(O)C(O)C6OC6OC(C(=O)O)C(O)C(O)C6O)C(C)(CO)C5CCC43C)C2C1` (stereo unspecified) was 6.36 min; that for `O=C(O)CC(=O)OCC1OC(Oc2ccc3c(=O)c(-c4ccc(O)cc4)coc3c2)C(O)C(O)C1O` (stereo unspecified) was 4.1 min; that for `CC1OC(OC2C(O)C(C)OC(OCC3OC(Oc4c(-c5ccc(O)cc5)oc5cc(O)cc(O)c5c4=O)C(O)C(O)C3O)C2O)C(O)C(O)C1O` (stereo unspecified) was 3.98 min.
Turning to `COc1cc(C=CC(=O)OC2C(O)CC(O)(C(=O)O)CC2O)ccc1O` (stereo unspecified), the LC retention time was 3.74 min.
As to `COc1ccc2c(c1)OC(OC1OC(CO)C(O)C(O)C1O)C(=O)N2O` (stereo unspecified), the LC retention time is 3.5 min.
Regarding `CCOC1OC2c3cc4c(cc3CCN(C)C2c2ccc3c(c21)OCO3)OCO4` (stereo unspecified), the LC retention time was 5.15 min.
With `COc1cc(-c2oc3cc(O)cc(O)c3c(=O)c2OC2OC(COC3OC(C)C(O)C(O)C3O)C(O)C(O)C2O)ccc1O` (stereo unspecified), the LC retention time is 4.17 min.
For `CCCCCC=CC=CC(=O)CCCCCCCC(=O)O` the value was 10.2 min; for `COc1cccc(C=CC(=O)O)c1`, 6.03 min; for `O=C1NCCc2c1[nH]c1ccccc21`, 5.53 min.
`CC1CCC2C(C)C3C(CC4C5CC=C6CC(OC7OC(CO)C(O)C(OC8OC(CO)C(O)C(O)C8O)C7OC7OC(C)C(O)C(O)C7O)CCC6(C)C5CCC43C)N2C1` (stereo unspecified): the LC retention time was 4.95 min.
For `COc1cc(C2c3cc4c(cc3C(O)C3COC(=O)C23)OCO4)cc(OC)c1OC` (stereo unspecified) the value was 6.26 min.
Take `CCN1CC2(COC)C(OC(C)=O)CC(OC)C34C5CC6(O)C(OC)C(O)C(OC(C)=O)(C5C6OC(=O)c5ccccc5)C(C(OC)C23)C14` (stereo unspecified): the LC retention time was 6.17 min.
Regarding `Oc1cc(O)c2ccc(-c3ccc(O)c(O)c3)[o+]c2c1`, the LC retention time is 3.59 min.
For `CC1OC(OC2C(O)COC(OC3C(C)OC(OC4C(OC(=O)C56CCC(C)(C)CC5C5=CCC7C8(C)CCC(OC9OC(CO)C(O)C(O)C9O)C(C)(C)C8CCC7(C)C5(C)CC6O)OCC(O)C4O)C(O)C3O)C2O)C(O)C(O)C1O` (stereo unspecified), the LC retention time is 6.12 min.
